System: LHON model induced by intravitreal rotenone in C57BL/6 mouse
Assay: Leber's hereditary optic neuropathy (LHON) mouse model, optomotor response
Format: in vivo
Settings: rotenone in left eye, 200 mg/kg orally in food
Experimental: FIG. 5: Efficacy of representative compounds of Formula (I) in leber's hereditary optic neuropathy (LHON) mouse model. LHON induced by rotenone injection in the left eye (5 μM) in C57BL/6 mouse model (Refer to Heitz, F. D et al. (2012). PLoS One., 7(9), e45182). […] Representative compounds (UTA 37 and UTA 77) and idebenone administered at 200 mg/kg over the observation period.
LHON model was induced by intravitreal injection of rotenone into the left eye in C57BL/6 mouse model as described by Heitz et al. 2012. Representative compounds (UTA 37 and UTA 77) and idebenone administered at 200 mg/kg over the observation period. Vision loss was measured by assessing number of head turns.
C57BL/6 mice (male, 8-11 weeks of age, average body weight≈25 g) were used in accordance with the Australian code for the use of animals for scientific purposes and under the required animal ethics approval from the University of Tasmania (UTAS) Animal Ethics Committee (Approval number A0016080). Animals were given at least seven days to acclimatise to the animal facility to reduce stress induced by transportation before being used for behavioural testing. All mice were supplied orally with test compounds by mixing test compounds into individual daily food portions as described previously (Heitz, F. D. et al. (2012). PLoS One., 7(9), e45182). […]

## COc1ccc(CCNC(=O)CCCC2=C(C)C(=O)c3ccccc3C2=O)cc1OC [UTA #77, N-(3,4-dimethoxyphenethyl)-4-(3-methyl-1,4-naphthoquinone-2-yl)butanamide]
  Protection of visual acuity (head turns, optomotor response; in words): Statistically significant protection of visual acuity
